Measured values: patent US20240376094A2, “SELECTIVE BCL-XL PROTAC COMPOUNDS AND METHODS OF USE” (Les Laboratoires Servier, priority 2021, published 2024)

How the values were obtained:
Type in all cases: cell-based
[1] = molecular target: T1, HiBiT-tagged BCL-xL (Homo sapiens, UniProt Q07817); test: NCI-H1650 BCL-xL protein levels, Nano-Glo HiBiT Lytic Detection; details: NCI-H1650 expressing HiBiT-tagged BCL-xL, overnight incubation, read-out: Bcl-xl HIBIT NCIH1650 DC50
T1 construct: expressed in transfected cells; host or cells: NCI-H1650 (ATCC No. CRL-5883), engineered HiBiT cell line
In short: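 HiBiT luminescence after cell lysis with LgBiT/furimazine reagent reported BCL-xL levels, expressed relative to untreated wells and fitted with a four-parameter logistic equation. Engineered NCI-H1650 cells were exposed overnight at 37° C to compound at final 0.508 nM-10 μM (10 points, triplicate plates).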

[2] = molecular target: T2, Bcl-xL (Homo sapiens, UniProt Q07817); test: HCT116 Bcl-xL degradation, capillary-based immunoassay (WES); details: HCT116, 24 h, 9-point serial dilution
T2 construct: Measured levels of Bcl-xL protein of HCT116 cells treated with the tested compounds; host or cells: HCT116
In short: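 Bcl-xL protein level by capillary WES immunoassay in HCT116 lysates, as % of untreated after cofilin normalization. Compound exposure was 24 h at 10 and 100 nM and/or a 9-point series, in quadruplicate. Four-parameter fitting gave the DC50.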

[3] = test system: EBC-1 lung cancer cell line; test: EBC-1 cell proliferation, CellTiter-Glo assay; details: Homo sapiens, 120 h; Ebc-1 cell viability, CTG assay, 5 days of treatment; read-out: CTG 5 day Ebc1 GI50
In short: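 CellTiter-Glo read-out after 5-day compound treatment, normalised to untreated cells, with GI50 derived by four-parameter logistic regression. Ten concentrations spanning 0.508 nM–10 μM were added to 1000 EBC-1 cells per well the day after seeding. Assays required at least one cell doubling versus Day 0.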

[4] = test system: MOLT-4 cells; test: MOLT-4 cell viability, CTG assay; details: Homo sapiens, MOLT-4, 48 h
In short: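 Viability read as total ATP luminescence (CTG) after 48 h compound treatment, 11 points at 5-fold spacing in triplicate, cells in RPMI 1640/10% FBS. IC50 is the concentration halving signal relative to control, four-parameter fit, averaged over at least 2 experiments.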

T2 sequence (Q07817 whole entry): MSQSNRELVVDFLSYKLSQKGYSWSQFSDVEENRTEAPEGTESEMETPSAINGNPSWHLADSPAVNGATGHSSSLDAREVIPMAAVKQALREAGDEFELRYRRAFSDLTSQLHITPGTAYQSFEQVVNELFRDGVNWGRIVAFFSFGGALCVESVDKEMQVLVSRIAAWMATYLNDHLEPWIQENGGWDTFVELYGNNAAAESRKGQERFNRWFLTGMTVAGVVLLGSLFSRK
T1 sequence (Q07817 whole entry): as above

DC50 [1] [nM]	DC50 [2] [nM]	GI50 [3] [nM]	IC50 [4] [nM]	SMILES
> 1670	2.85	2660	5.77	Cc1cc(N(CCCCN(C)C(=O)CCCCCCCCCOc2cccc3c2C(=O)N(C2CCC(=O)NC2=O)C3=O)c2ccc(-c3cnn(CC45CC6(C)CC(C)(C4)CC(OCCN(C)C)(C6)C5)c3C)c(C(=O)O)n2)nnc1Nc1nc2ccccc2s1 (stereo not shown) [Example 95, 6-[[6-(1,3-benzothiazol-2-ylamino)-5-methyl-pyridazin-3-yl]-[4-[10-[2-(2,6-dioxo-3-piperidyl)-1,3-dioxo-isoindolin-4-yl]oxydecanoyl-methyl-amino]butyl]amino]-3-[1-[[3-[2-(dimethylamino)ethoxy]-5,7-dimethyl-1-adamantyl]methyl]-5-methyl-pyrazol-4-yl]pyridine-2-carboxylic acid]
> 1670	13.6	378	63.4	Cc1ncsc1-c1ccc([C@H](C)NC(=O)[C@@H]2C[C@@H](O)CN2C(=O)[C@@H](NC(=O)CCOCCN(C)CCOC23CC4(C)CC(C)(CC(Cn5ncc(-c6ccc(N7CCCc8c7nnc(Nc7nc9ccccc9s7)c8C)nc6C(=O)O)c5C)(C4)C2)C3)C(C)(C)C)cc1 [Example 103, 6-[3-(1,3-benzothiazol-2-ylamino)-4-methyl-6,7-dihydro-5H-pyrido[2,3-c]pyridazin-8-yl]-3-[1-[[3-[2-[2-[3-[[(1S)-1-[(2S,4R)-4-hydroxy-2-[[(1S)-1-[4-(4-methylthiazol-5-yl)phenyl]ethyl]carbamoyl]pyrrolidine-1-carbonyl]-2,2-dimethyl-propyl]amino]-3-oxo-propoxy]ethyl-methyl-amino]ethoxy]-5,7-dimethyl-1-adamantyl]methyl]-5-methyl-pyrazol-4-yl]pyridine-2-carboxylic acid]
> 1670	> 316	81	9.7	Cc1ncsc1-c1ccc([C@H](C)NC(=O)[C@@H]2C[C@@H](O)CN2C(=O)[C@@H](NC(=O)CCOCCCCCCN(C)CCOC23CC4(C)CC(C)(CC(Cn5ncc(-c6ccc(N7CCCc8c7nnc(Nc7nc9ccccc9s7)c8C)nc6C(=O)O)c5C)(C4)C2)C3)C(C)(C)C)cc1 [Example 108, 6-[3-(1,3-benzothiazol-2-ylamino)-4-methyl-6,7-dihydro-5H-pyrido[2,3-c]pyridazin-8-yl]-3-[1-[[3-[2-[6-[3-[[(1S)-1-[(2S,4R)-4-hydroxy-2-[[(1S)-1-[4-(4-methylthiazol-5-yl)phenyl]ethyl]carbamoyl]pyrrolidine-1-carbonyl]-2,2-dimethyl-propyl]amino]-3-oxo-propoxy]hexyl-methyl-amino]ethoxy]-5,7-dimethyl-1-adamantyl]methyl]-5-methyl-pyrazol-4-yl]pyridine-2-carboxylic acid]
1	0.155	98	7.84	Cc1ncsc1-c1ccc([C@H](C)NC(=O)[C@@H]2C[C@@H](O)CN2C(=O)[C@@H](NC(=O)COCCCCCCCCCN(C)CCOC23CC4(C)CC(C)(CC(Cn5ncc(-c6ccc(N7CCCc8c7nnc(Nc7nc9ccccc9s7)c8C)nc6C(=O)O)c5C)(C4)C2)C3)C(C)(C)C)cc1 [Example 109, 6-[3-(1,3-benzothiazol-2-ylamino)-4-methyl-6,7-dihydro-5H-pyrido[2,3-c]pyridazin-8-yl]-3-[1-[[3-[2-[9-[2-[[(1S)-1-[(2S,4R)-4-hydroxy-2-[[(1S)-1-[4-(4-methylthiazol-5-yl)phenyl]ethyl]carbamoyl]pyrrolidine-1-carbonyl]-2,2-dimethyl-propyl]amino]-2-oxo-ethoxy]nonyl-methyl-amino]ethoxy]-5,7-dimethyl-1-adamantyl]methyl]-5-methyl-pyrazol-4-yl]pyridine-2-carboxylic acid]
2	11.4	379	23.9	Cc1ncsc1-c1ccc([C@H](C)NC(=O)[C@@H]2C[C@@H](O)CN2C(=O)[C@@H](NC(=O)COCCCCCCCCCCCN(C)CCOC23CC4(C)CC(C)(CC(Cn5ncc(-c6ccc(N7CCCc8c7nnc(Nc7nc9ccccc9s7)c8C)nc6C(=O)O)c5C)(C4)C2)C3)C(C)(C)C)cc1 [Example 110, 6-[3-(1,3-benzothiazol-2-ylamino)-4-methyl-6,7-dihydro-5H-pyrido[2,3-c]pyridazin-8-yl]-3-[1-[[3-[2-[11-[2-[[(1S)-1-[(2S,4R)-4-hydroxy-2-[[(1S)-1-[4-(4-methylthiazol-5-yl)phenyl]ethyl]carbamoyl]pyrrolidine-1-carbonyl]-2,2-dimethyl-propyl]amino]-2-oxo-ethoxy]undecyl-methyl-amino]ethoxy]-5,7-dimethyl-1-adamantyl]methyl]-5-methyl-pyrazol-4-yl]pyridine-2-carboxylic acid]
0.5	0.4	41	2.62	Cc1ncsc1-c1ccc([C@H](C)NC(=O)[C@@H]2C[C@@H](O)CN2C(=O)[C@@H](NC(=O)COCCCCCCCCCCCCCN(C)CCOC23CC4(C)CC(C)(CC(Cn5ncc(-c6ccc(N7CCCc8c7nnc(Nc7nc9ccccc9s7)c8C)nc6C(=O)O)c5C)(C4)C2)C3)C(C)(C)C)cc1 [Example 111, 6-[3-(1,3-benzothiazol-2-ylamino)-4-methyl-6,7-dihydro-5H-pyrido[2,3-c]pyridazin-8-yl]-3-[1-[[3-[2-[13-[2-[[(1S)-1-[(2S,4R)-4-hydroxy-2-[[(1S)-1-[4-(4-methylthiazol-5-yl)phenyl]ethyl]carbamoyl]pyrrolidine-1-carbonyl]-2,2-dimethyl-propyl]amino]-2-oxo-ethoxy]tridecyl-methyl-amino]ethoxy]-5,7-dimethyl-1-adamantyl]methyl]-5-methyl-pyrazol-4-yl]pyridine-2-carboxylic acid]
0.5	0.495	437	15.7	Cc1cc(N(CCCCN(C)C(=O)CCCCCCCCCCC(=O)N[C@H](C(=O)N2C[C@H](O)C[C@H]2C(=O)N[C@@H](C)c2ccc(-c3scnc3C)cc2)C(C)(C)C)c2ccc(-c3cnn(CC45CC6(C)CC(C)(C4)CC(OCCN(C)C)(C6)C5)c3C)c(C(=O)O)n2)nnc1Nc1nc2ccccc2s1 [Example 112, 6-[[6-(1,3-benzothiazol-2-ylamino)-5-methyl-pyridazin-3-yl]-[4-[[12-[[(1S)-1-[(2S,4R)-4-hydroxy-2-[[(1S)-1-[4-(4-methylthiazol-5-yl)phenyl]ethyl]carbamoyl]pyrrolidine-1-carbonyl]-2,2-dimethyl-propyl]amino]-12-oxo-dodecanoyl]-methyl-amino]butyl]amino]-3-[1-[[3-[2-(dimethylamino)ethoxy]-5,7-dimethyl-1-adamantyl]methyl]-5-methyl-pyrazol-4-yl]pyridine-2-carboxylic acid]
